# In US20240287070A1, “FUSED HETEROCYCLIC DERIVATIVES” (Janssen Sciences Ireland Unlimited Company, priority 2021, published 2024):
# Tests used:
# [1] = Human liver microsome stability; assay type: in vitro ADME; details: human, pooled human liver microsomes, pH 7.4, pooled human liver microsomes 0.5 mg/mL, 1 μM compound, NADPH 1 mM, 37° C., 0-60 min; read-out: HLM Metabolism t1/2
# Method in brief: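 Half-life came from elimination rate constant (negative slope of ln compound/internal standard area ratio over time), measured by cassette LC-MS after acetonitrile quench. Human liver microsome reactions, one replicate per compound, were initiated with NADPH (1 mM final) and sampled at six points up to 60 min.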
# [2] = tested on: HBV (HepG2.117 cell line, inducibly HBV producing); assay: Anti-HBV activity, intracellular HBV DNA by real-time PCR in HepG2.117 cell line; assay type: cell-based, hepatitis B virus; details: HepG2.117 cells, 3 days of treatment
# Method in brief: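 Readout is intracellular HBV DNA, measured by real-time PCR with HBV-specific primers and probe after 3 days of exposure to serial compound dilutions. Cells are the stable HepG2.117 line, where HBV replication is induced in the absence of doxycycline.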
# [3] = Cytotoxicity, ATPlite Luminescence Assay; assay type: cell-based, human; details: human, HepG2 or HepG2.117 cells, 3-days incubation unless marked with *
# Method in brief: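 HepG2/HepG2.117; compound exposure 3–4 d; viability readout = ATPlite luminescence.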
# [4] = Hepatitis B virus, HepG2.117, 72 h
smiles,measurement,setting,value
"Cc1nnn(-c2ccc(C(C)N3C[C@@H](C)n4nc5c(c4C3=O)CN(C(=O)c3ccc(Cl)c(Cl)c3)[C@H](C)C5)cn2)n1 (single isomer, unassigned) [Compound 26A, (3R,7R)-2-(3,4-dichlorobenzoyl)-3,7-dimethyl-9-((R*)-1-(6-(5-methyl-2H-tetrazol-2-yl)pyridin-3-yl)ethyl)-1,2,3,4,8,9-hexahydropyrido[4′,3′:3,4]pyrazolo[1,5-a]pyrazin-10(7H)-one]",half-life at 1 μM,[1],1.38 h
same,EC50,[2],0.14 µM
same,CC50 at 3 days,[3],> 50 µM
"CC(c1ccc(C(C)(C)O)nc1)N1C[C@@H](C)n2nc3c(c2C1=O)CN(C(=O)c1ccc(Cl)c(C#N)c1)[C@H](C)C3 (single isomer, unassigned) [Compound 63A, 2-chloro-5-((3R,7R)-9-((R*)-1-(6-(2-hydroxypropan-2-yl)pyridin-3-yl)ethyl)-3,7-dimethyl-10-oxo-1,2,3,4,7,8,9,10-octahydropyrido[4′,3′:3,4]pyrazolo[1,5-a]pyrazine-2-carbonyl)benzonitrile]",half-life at 1 μM,[1],> 3 h
same,EC50,[2],0.38 µM
same,CC50 at 3 days,[3],> 50 µM
"CN=[S@@](C)(=O)c1ccc([C@@H](C)N2C[C@@H](C)n3nc4c(c3C2=O)CN(C(=O)c2ccc(Cl)c(Cl)c2)[C@H](C)C4)cn1 (relative stereo) [Compound 29B, (3R,7R)-2-(3,4-dichlorobenzoyl)-9-((R*)-1-(6-((S*)—N,S-dimethylsulfonimidoyl)pyridin-3-yl)ethyl)-3,7-dimethyl-1,2,3,4,8,9-hexahydropyrido[4′,3′:3,4]pyrazolo[1,5-a]pyrazin-10(7H)-one]",half-life at 1 μM,[1],> 3 h
same,EC50,[2]; [4],0.81 µM
same,CC50 at 3 days,[3],> 50 µM
"CC(c1ccnc(Cl)c1)N1C[C@@H](C)n2nc3c(c2C1=O)CN(C(=O)c1ccc(Cl)c(Cl)c1)[C@H](C)C3 (single isomer, unassigned) [Compound 31A, (3R,7R)-9-((R*)-1-(2-chloropyridin-4-yl)ethyl)-2-(3,4-dichlorobenzoyl)-3,7-dimethyl-1,2,3,4,8,9-hexahydropyrido[4′,3′:3,4]pyrazolo[1,5-a]pyrazin-10(7H)-one]",half-life at 1 μM,[1],1.9 h
same,EC50,[2],0.051 µM
same,CC50 at 3 days,[3],31.5 µM
"CC(c1cnc(C(F)(F)F)cn1)N1C[C@@H](C)n2nc3c(c2C1=O)CN(C(=O)c1ccc(Cl)c(C#N)c1)[C@H](C)C3 (single isomer, unassigned) [Compound 10B, 2-Chloro-5-((3R,7R)-3,7-dimethyl-10-oxo-9-((S*)-1-(5-(trifluoromethyl)pyrazin-2-yl)ethyl)-1,2,3,4,7,8,9,10-octahydropyrido[4′,3′:3,4]pyrazolo[1,5-a]pyrazine-2-carbonyl)benzonitrile]",half-life at 1 μM,[1],> 3 h
same,EC50,[2]; [4],0.087 µM
same,CC50 at 3 days,[3],> 50 µM
"CC(c1ccc(C(C)(C)O)nc1)N1C[C@@H](C)n2nc3c(c2C1=O)CN(C(=O)c1cc(C(F)(F)F)c(Cl)cn1)[C@H](C)C3 (single isomer, unassigned) [Compound 58A, (3R,7R)-2-(5-chloro-4-(trifluoromethyl)picolinoyl)-9-((R*)-1-(6-(2-hydroxypropan-2-yl)pyridin-3-yl)ethyl)-3,7-dimethyl-1,2,3,4,8,9-hexahydropyrido[4′,3′:3,4]pyrazolo[1,5-a]pyrazin-10(7H)-one]",half-life at 1 μM,[1],> 3 h
same,EC50,[2],> 2.5 µM
same,CC50 at 3 days,[3],> 50 µM
"CC(c1ccc(S(N)(=O)=O)cc1)N1C[C@@H](C)n2nc3c(c2C1=O)CN(C(=O)c1ccc(Cl)c(Cl)c1)[C@H](C)C3 (single isomer, unassigned) [Compound 16A, 4-((R*)-1-((3R,7R)-2-(3,4-dichlorobenzoyl)-3,7-dimethyl-10-oxo-1,2,3,4,7,8-hexahydropyrido[4′,3′:3,4]pyrazolo[1,5-a]pyrazin-9(10H)-yl)ethyl)benzenesulfonamide]",half-life at 1 μM,[1],> 3 h
same,EC50,[2]; [4],0.061 µM
same,CC50 at 3 days,[3],> 50 µM
